This is an account of results in US9732075B2, “Benzimidazole-proline derivatives” (IDORSIA PHARMACEUTICALS LTD, priority 2012, dated 2017).

The target in test [1] is human orexin-1 receptor (Homo sapiens (Human), UniProt O43613). Kind of test: In vitro assay: intracellular calcium measurements (FLIPR), antagonistic activity. In kind it is cell-based. As to conditions: CHO cells expressing human orexin-1 receptor, orexin-A agonist, geometric mean, read-out: IC50 Ox1. The protocol:
(§1) In Vitro Assay: Intracellular Calcium Measurements:
(§2) Chinese hamster ovary (CHO) cells expressing the human orexin-1 receptor and the human orexin-2 receptor, respectively, are grown in culture medium (Ham F-12 with L-Glutamine) containing 300 μg/ml G418, 100 U/ml penicillin, 100 μg/ml streptomycin and 10% heat inactivated fetal calf serum (FCS). The cells are seeded at 20,000 cells/well into 384-well black clear bottom sterile plates (Greiner). The seeded plates are incubated overnight at 37° C. in 5% CO2.
(§3) Human orexin-A as an agonist is prepared as 1 mM stock solution in MeOH: water (1:1), diluted in HBSS containing 0.1% bovine serum albumin (BSA), NaHCO3: 0.375 g/l and 20 mM HEPES for use in the assay at a final concentration of 3 nM.
(§4) Antagonists are prepared as 10 mM stock solution in DMSO, then diluted in 384-well plates using DMSO followed by a transfer of the dilutions into in HBSS containing 0.1% bovine serum albumin (BSA), NaHCO3: 0.375 g/l and 20 mM HEPES. On the day of the assay, 50 μl of staining buffer (HBSS containing 1% FCS, 20 mM HEPES, NaHCO3: 0.375 g/l, 5 mM probenecid (Sigma) and […] of the fluorescent calcium indicator fluo-4 AM (1 mM stock solution in DMSO, containing 10% pluronic) is added to each well. The 384-well cell-plates are incubated for 50 min at 37° C. in 5% CO2 followed by equilibration at RT for 30 min before measurement.
(§5) Within the Fluorescent Imaging Plate Reader (FLIPR Tetra, Molecular Devices), antagonists are added to the plate in a volume of 10 μl/well, incubated for 120 min and finally 10 μl/well of agonist is added. Fluorescence is measured for each well at 1 second intervals, and the height of each fluorescence peak is compared to the height of the fluorescence peak induced by an approximate EC70 (for example 5 nM) of orexin-A with vehicle in place of antagonist. The IC50 value (the concentration of compound needed to inhibit 50% of the agonistic response) is determined and may be normalized using the obtained IC50 value of a on-plate reference compound. Optimized conditions are achieved by adjustment of pipetting speed and cell splitting regime. The calculated IC50 values may fluctuate depending on the daily cellular assay performance. Fluctuations of this kind are known to those skilled in the art. Average IC50 values from several measurements are given as geometric mean values.

Test [2] has as its target human orexin-2 receptor (Homo sapiens (Human), UniProt O43614). The test is described as above. In kind it is cell-based. Conditions: CHO cells expressing human orexin-2 receptor, orexin-A agonist, geometric mean, read-out: IC50 Ox2. The protocol: as §1, §2, §3, §4, §5

human orexin-1 receptor, sequence (O43613 whole entry): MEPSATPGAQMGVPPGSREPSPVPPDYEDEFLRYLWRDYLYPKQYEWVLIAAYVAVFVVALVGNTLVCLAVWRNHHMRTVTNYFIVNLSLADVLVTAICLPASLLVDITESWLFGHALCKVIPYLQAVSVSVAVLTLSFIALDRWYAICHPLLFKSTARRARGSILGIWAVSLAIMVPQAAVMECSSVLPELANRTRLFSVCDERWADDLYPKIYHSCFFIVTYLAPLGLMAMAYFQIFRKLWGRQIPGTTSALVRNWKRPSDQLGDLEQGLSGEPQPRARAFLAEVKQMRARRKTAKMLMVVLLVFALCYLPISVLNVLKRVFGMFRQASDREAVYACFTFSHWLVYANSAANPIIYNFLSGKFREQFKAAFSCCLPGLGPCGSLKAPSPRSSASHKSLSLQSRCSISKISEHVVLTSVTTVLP
human orexin-2 receptor, sequence (O43614 whole entry): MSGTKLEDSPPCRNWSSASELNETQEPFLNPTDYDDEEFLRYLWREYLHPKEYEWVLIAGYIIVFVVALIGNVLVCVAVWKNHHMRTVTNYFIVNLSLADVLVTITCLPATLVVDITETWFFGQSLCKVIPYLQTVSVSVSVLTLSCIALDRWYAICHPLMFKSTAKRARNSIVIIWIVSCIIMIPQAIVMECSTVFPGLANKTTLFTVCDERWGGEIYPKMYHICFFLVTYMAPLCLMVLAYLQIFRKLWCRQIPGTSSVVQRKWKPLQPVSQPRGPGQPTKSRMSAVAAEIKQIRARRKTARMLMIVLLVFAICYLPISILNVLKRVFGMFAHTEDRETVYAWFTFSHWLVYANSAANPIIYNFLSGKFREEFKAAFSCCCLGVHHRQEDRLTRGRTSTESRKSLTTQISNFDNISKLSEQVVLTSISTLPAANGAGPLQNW

For `COc1cccc(C#Cc2ccccc2C(=O)N2CCC[C@@]2(C)c2nc3c(C)cc(Br)cc3[nH]2)c1` [Ex. 5.249], the IC50 amounted to 38 nM in test [1] and 53 nM in test [2].
For `Cc1nc(C(=O)N2CCCC2c2nc3c(C)c(Cl)ccc3[nH]2)c(-c2ccccc2)s1` (centres unmarked) [Ex. 1.133], in that order: 4 nM and 11 nM.
The matching figures for `Cc1nc(C(=O)N2CC[C@H](C)[C@H]2c2nc3c(C)c(Cl)ccc3[nH]2)c(-c2ccc(F)cc2)s1` [Ex. 4.70]: 0.6 nM and 404 nM.
The matching figures for `C=C1C[C@@H](c2nc3cccc(C)c3[nH]2)N(C(=O)c2nc(C)sc2-c2ccc(Cl)c(Cl)c2)C1` [Ex. 6.113]: 5 nM and 1 nM.
For the compound `Cc1nc(C(=O)N2CCCC2c2nc3c(C(C)C)cccc3[nH]2)c(-c2cccc(Cl)c2)s1` (centres unmarked) [Ex. 1.116], the half-inhibitory concentration (IC50) was determined as 86 nM in test [1] and 248 nM in test [2].
For `Cc1ccc(-n2nccn2)c(C(=O)N2CCC[C@@]2(C)c2nc3c(C)c(C)ccc3[nH]2)c1` [Ex. 5.28], in that order: 4 nM and 19 nM.
For the compound `COc1ccccc1-c1sc(C)nc1C(=O)N1CC[C@H](C)[C@H]1c1nc2c(C(F)(F)F)cccc2[nH]1` [Ex. 4.156], the IC50 in test [1] stood at 14 nM; in test [2] it was 489 nM.
For `Cc1nc(C(=O)N2CC[C@H](C)[C@H]2c2nc3cc(C(F)(F)F)ccc3[nH]2)c(-c2cccc(Cl)c2)s1` [Ex. 4.9], in that order: 2 nM and 2780 nM.
The matching figures for `Cc1ccc(-c2cccnc2)c(C(=O)N2CCC[C@@]2(C)c2nc3ccc(Cl)c(C)c3[nH]2)c1` [Ex. 5.216]: 15 nM and 45 nM.
The matching figures for `CSc1cccc2nc([C@@H]3CCCN3C(=O)c3cncnc3-c3ccc(C)c(C)c3)[nH]c12` [Ex. 1.83]: 17 nM and 36 nM.
As to `Cc1cc2[nH]c([C@@H]3[C@@H](C)CCN3C(=O)c3c(-c4ccccn4)ccc(C)c3F)nc2cc1Cl` [Ex. 4.113], the values for the IC50 in test [1] and in test [2] were 9 nM and 2040 nM, respectively.
For `COc1ccc2nc([C@@H]3CCCN3C(=O)c3cc(OC)c(OC)cc3-n3nccn3)[nH]c2c1` [Ex. 1.162], in that order: 458 nM and 27 nM.
`C=C1CN(C(=O)c2nc(N(C)C)sc2-c2ccc(C)c(C)c2)C(C)(c2nc3cc(OC)ccc3[nH]2)C1` (centres unmarked) [Ex. 6.144]: the IC50 was found to be 15 nM in test [1] and 56 nM in test [2].
Take `Cc1nc(C(=O)N2CC[C@H](C)[C@H]2c2nc3cccc(C)c3[nH]2)c(-c2cccc(Cl)c2)s1` [Ex. 4.7]: the IC50 came out at 2 nM in test [1] and 603 nM in test [2].
`C=C1CN(C(=O)c2ccccc2-n2nccn2)C(C)(c2nc3cc(OC)ccc3[nH]2)C1` (centres unmarked) [Ex. 6.155]: the IC50 came to 649 nM in test [1] and 105 nM in test [2].
The matching figures for `COc1cc2nc([C@@H]3[C@@H](C)CCN3C(=O)c3nc(C)sc3-c3ccc(F)cc3)[nH]c2cc1OC` [Ex. 4.54]: 21 nM and 2320 nM.
For “(S)-(2-(6-methoxy-1H-benzo[d]imidazol-2-yl)pyrrolidin-1-yl)(5-methyl-2-(2H-1,2,3-triazol-2-yl)phenyl)methanone [Example 1.1]”, in that order: 1500 nM and 108 nM.
For `Cc1nc(C(=O)N2CCC[C@@]2(C)c2nc3c(F)c(F)ccc3[nH]2)c(-c2ccc(Cl)cc2)s1` [Ex. 5.211], in that order: 27 nM and 159 nM.
In the case of `Cc1nc(C(=O)N2CCCC2c2nc3c(Br)cccc3[nH]2)c(-c2ccccc2)s1` (centres unmarked) [Ex. 1.130], the IC50 was determined as 113 nM in test [1] and 75 nM in test [2].
In the case of `Cc1ccc2[nH]c([C@@H]3[C@@H](C)CCN3C(=O)c3nc(C)sc3-c3ccccc3)nc2c1` [Ex. 4.5], the IC50 in test [1] is 29 nM; in test [2], 3190 nM.
Take `C=C1C[C@@H](c2nc3cccc(C)c3[nH]2)N(C(=O)c2nc(C)sc2-c2ccc(F)cc2)C1` [Ex. 6.106]: the IC50 in test [1] worked out at 99 nM; in test [2], 5 nM.
The matching figures for `CO[C@H]1CN(C(=O)c2nc(C)ccc2-n2nccn2)C(C)(c2nc3c(C)c(Cl)ccc3[nH]2)C1` (some centres unmarked) [Ex. 3.56]: 18 nM and 37 nM.
For `CO[C@@H]1C[C@@H](c2nc3ccc(Cl)c(C)c3[nH]2)N(C(=O)c2nc(C)sc2-c2cccc(C)c2)C1` [Ex. 3.32], in that order: 0.9 nM and 5 nM.
For `C=C1C[C@@H](c2nc3cc(C(C)(C)C)ccc3[nH]2)N(C(=O)c2cc(C)ccc2-n2cccn2)C1` [Ex. 6.171], in that order: 162 nM and 19 nM.
Consider `Cc1ccc(-c2nc(C)sc2C(=O)N2CC[C@H](C)[C@H]2c2nc3c(C)cc(Cl)cc3[nH]2)cc1` [Ex. 4.96], for which the 50% inhibitory concentration (IC50) in test [1] was 31 nM; in test [2], 996 nM.
The matching figures for `C[C@@]1(c2nc3cc(F)c(Br)cc3[nH]2)CCCN1C(=O)c1cc(Cl)ccc1-n1nccn1` [Ex. 5.129]: 20 nM and 62 nM.
On to `COc1ccc(-c2ccccc2C(=O)N2CCC[C@@]2(C)c2nc3c(C)c(C)ccc3[nH]2)cc1` [Ex. 5.119], for which the results for the IC50 in test [1] and in test [2] were 30 nM and 29 nM, respectively.
For `C=C1C[C@@H](c2nc3cc(OC)ccc3[nH]2)N(C(=O)c2nc(C)sc2-c2ccc(Cl)cc2)C1` [Ex. 6.5], in that order: 216 nM and 19 nM.
The matching figures for `Cc1ccc(-n2nccn2)c(C(=O)N2CCC[C@@]2(C)c2nc3c4c(ccc3[nH]2)OCCO4)c1` [Ex. 5.33]: 25 nM and 29 nM.
The matching figures for `COc1ccc(-n2nccn2)c(C(=O)N2CCC[C@@]2(C)c2nc3c(C)c(Cl)ccc3n2C)c1` [Ex. 7.23]: 1 nM and 3 nM.
`CO[C@H]1CN(C(=O)c2nc(C)sc2-c2cccc(Cl)c2)[C@](C)(c2nc3c(C)c(Cl)ccc3[nH]2)C1` [Ex. 3.31]: the IC50 is 5 nM in test [1] and 4 nM in test [2].
In the case of `CCc1ccc(-c2sc(C)nc2C(=O)N2CCC[C@H]2c2nc3ccc(OC)cc3[nH]2)cc1` [Ex. 1.24], the concentration for half-maximal inhibition (IC50) in test [1] is 850 nM; in test [2] it was 81 nM.
Consider `C=C1CC(c2nc3cccc(SC)c3[nH]2)N(C(=O)c2nc(C3CC3)sc2-c2cccc(C)c2)C1` (racemic) [Ex. 6.87], for which the half-maximal inhibitory concentration (IC50) in test [1] was 1 nM; in test [2], 2 nM.
For `Cc1ccc(-n2nccn2)c(C(=O)N2CC[C@H](C)[C@H]2c2nc3c(C)cc(Cl)cc3[nH]2)c1F` [Ex. 4.99], in that order: 13 nM and 981 nM.
The matching figures for `COc1cc2nc([C@@H]3[C@@H](C)CCN3C(=O)c3ncsc3-c3cccc(Cl)c3)[nH]c2cc1OC` [Ex. 4.55]: 167 nM and 7970 nM.
For `COc1ccc(-n2nccn2)c(C(=O)N2CCC[C@@]2(C)c2nc3c(C)c(Cl)ccc3[nH]2)c1F` [Ex. 5.37], in that order: 10 nM and 16 nM.
For `CO[C@H]1CN(C(=O)c2cc(C)ccc2-n2nccn2)C(C)(c2nc3c(C)cccc3[nH]2)C1` (some centres unmarked) [Ex. 3.26], the IC50 in test [1] is 50 nM; in test [2] it was 66 nM.
Consider `COc1cccc(-c2nc(C)ncc2C(=O)N2CCC[C@H]2c2nc3ccc(SC)cc3[nH]2)c1` [Ex. 1.56], for which the figures for the concentration for half-maximal inhibition (IC50) in test [1] and in test [2] were 252 nM and 88 nM, respectively.
Take `C=C1C[C@@H](c2nc3cc(C(C)(C)C)ccc3[nH]2)N(C(=O)c2nc(C)sc2-c2ccc(C)c(C)c2)C1` [Ex. 6.57]: the IC50 in test [1] and in test [2] was 11 nM each time.
With `COc1cc2nc([C@]3(C)CCCN3C(=O)c3nc(C)sc3-c3ccc(Cl)cc3)[nH]c2cc1OC` [Ex. 5.79], the IC50 is 43 nM in test [1] and 97 nM in test [2].
The matching figures for `Cc1ccc(-n2nccn2)c(C(=O)N2CCC[C@@]2(C)c2nc3cc(SC(F)(F)F)ccc3[nH]2)c1` [Ex. 5.30]: 57 nM and 164 nM.
For `Cc1c(Cl)ccc2c1nc([C@]1(C)CCCN1C(=O)c1cc(Cl)ccc1-n1nccn1)n2C` [Ex. 7.22], in that order: 1 nM and 4 nM.
The matching figures for `Cc1c(Cl)ccc2[nH]c([C@]3(C)CCCN3C(=O)c3nc(-c4ccccc4F)sc3-c3ccc(F)cc3)nc12` [Ex. 5.233]: 5 nM and 263 nM.
